Results: patent publication US20180344725A1, “QUINOLONE CHALCONE COMPOUNDS AND USES THEREOF” (priority 2015, published 2018)

Experiments:
Type in all cases: cell-based
KB-C-1 = assay: SRB-based cytotoxicity assay; conditions: Homo sapiens, KBC-1; KB-C-1, multidrug naïve
Method: 1845B5 and MCF-10A non-cancer breast cell lines were cultured in DME/F12 medium supplemented with 10% fetal bovine serum, antibiotics and growth factors. […] The human small cell lung carcinoma H69 cell line and its multidrug-resistant MRP1-overexpressing isogenic H69AR cell line were purchased from ATCC. […] H69 cells grow as large multi-cell aggregates, making it difficult to accurately count cell numbers. […] The IL-6 dependent bortezomib-resistant ANBL6-BR cell line was further supplemented with 1 ng/ml of IL-6. The MCF10AT1 and MCF10CA1a cell lines are isogenic to the MCF10A cell line, and obtained from Dr. Valerie Weaver at the Center for Bioengineering and Tissue Regeneration, UCSF, CA, USA. […] The drug-resistant cells were cultured in the absence of drug for at least one passage before carrying out experiments. All cells were maintained in a humidified incubator at 37° C. […] Cell line authentication was performed using short tandem repeat (STR) profiling. […] Some wells were treated with 100 μl of 10% trichloroacetic acid (TCA) as a negative control and sham (medium with dimethyl sulfoxide; DMSO) treated cells were used as a positive control. […] TCA was removed and cells were washed with cold tap water, and plate was air-dried, followed by addition of 50 μl of 0.4% SRB staining solution to each well. After 30 minutes incubation, SRB staining solution was removed. Cells were washed with 1% acetic acid solution, and then washed with tap water to remove unbound staining solution, followed by air-drying. 200 μl of 10 mM (pH10.5) trizma base buffer was added to each well to solubilise macromolecules. […] Cell growth (inhibition) was calculated by the following formula: % cells proliferation=[(AT-CT)/(ST-CT)]×100 wherein AT=absorbance of treated cells, CT=absorbance of negative control cells, and ST=absorbance of sham treated cells. […] CI values were determined from four independent experiments.

RPMI-8226-BR = assay: Antiproliferation, bortezomib-resistant cells; conditions: RPMI-8226-BR (bortezomib-resistant)
Method: For (anti)proliferation assays, 4,000-5,000 cells/well of the 96-well clustered dish were incubated for 16 hours, as described previously (Hu et al., 2008; Skehan et al., 1990). After 16 hours, culture medium was replaced with fresh medium containing different dilutions of test compounds dissolved in DMSO. Some wells were treated with 100 μl of 10% trichloroacetic acid (TCA) as a negative control and sham (medium with dimethyl sulfoxide; DMSO) treated cells were used as a positive control. After 72 hours post-incubation, medium was removed and cells were fixed with 10% TCA at 4° C. for 1 hour. […] SRB stained macromolecules were determined at a 540 nm wavelength using an automated plate reader (Synergy H4 Hybrid Multi-Mode Microplate Reader, BioTek, Winooski, Vt.). Cell growth (inhibition) was calculated by the following formula: […]
wherein AT=absorbance of treated cells, CT=absorbance of negative control cells, and ST=absorbance of sham treated cells. IC50 values were calculated from sigmoidal dose-response curves generated by two independent biological replicates, with quadruplicate in each set by using Graph Pad Prism v.5.04 software. […] The combinational index (CI) was calculated as described previously (Chou 2006). […] CI values were determined from four independent experiments.

ANBL6-BR = assay: Antiproliferation, bortezomib-resistant cells; conditions: ANBL6-BR (bortezomib-resistant multiple myeloma)
Method: All of the cell lines used were purchased from ATCC and cultured in RPMI-1640 supplemented with 10% fetal bovine serum and antibiotics (100 units penicillin/100 μg/ml streptomycin), unless stated otherwise. 1845B5 and MCF-10A non-cancer breast cell lines were cultured in DME/F12 medium supplemented with 10% fetal bovine serum, antibiotics and growth factors. […] The human small cell lung carcinoma H69 cell line and its multidrug-resistant MRP1-overexpressing isogenic H69AR cell line were purchased from ATCC. […] H69 cells grow as large multi-cell aggregates, making it difficult to accurately count cell numbers. […] The IL-6 dependent bortezomib-resistant ANBL6-BR cell line was further supplemented with 1 ng/ml of IL-6. The MCF10AT1 and MCF10CA1a cell lines are isogenic to the MCF10A cell line, and obtained from Dr. Valerie Weaver at the Center for Bioengineering and Tissue Regeneration, UCSF, CA, USA. […] Cell growth (inhibition) was calculated by the following formula: % cells proliferation=[(AT-CT)/(ST-CT)]×100 wherein AT=absorbance of treated cells, CT=absorbance of negative control cells, and ST=absorbance of sham treated cells. […] The combinational index (CI) was calculated as described previously (Chou 2006). […] CI values were determined from four independent experiments.

Compound: COc1ccccc1C(=O)/C=C/c1cc2ccccc2[nH]c1=O [CTR-17, (E)-3-(3-(2-Methoxyphenyl)-3-oxoprop-1-enyl)quinolin-2(1H)-one]
- IC50 (KB-C-1): 380 ± 70 nM

Compound: COc1ccc2[nH]c(=O)c(/C=C/C(=O)c3ccccc3OC)cc2c1 [CTR-20, (E)-6-Methoxy-3-(3-(2-methoxyphenyl)-3-oxoprop-1-enyl) quinolin-2(1H)-one]
- IC50 (KB-C-1): 100 ± 20 nM
- IC50 (RPMI-8226-BR): 280 ± 30 nM
- IC50 (ANBL6-BR): 760 ± 280 nM
